From BindingDB's records for patent US20250230171 (Moma Therapeutics, 2025) come the findings set out here.

Structures are written as SMILES.

The assay deals with T1, DNA polymerase theta (POLQ) (2-894).
T1 construct: 2-894
As to the kind of experiment: ATPase Assay. How it is done: POLθ-mediated ATP hydrolysis was measured using the ADP-Glo Kinase Assay (Promega Corporation, Madison, WI). Reactions were performed in white 384-well small-volume microplates (Greiner Bio-One, Frickenhausen, Germany) using a total volume of 15 μL. The ATPase reaction consisted of 1 nM biotinylated Avi-POLθ[2-894], 5 nM of a 50 nucleotide poly-thymine repeat single-stranded DNA (PolyT(50) ssDNA), and 100 μM ATP in 5 μL of assay buffer (50 mM Tris, pH 7.5, 80 mM KCl, 10 MgCl2, 1 mM DTT, 5% glycerol, 0.01% BSA, 0.01% Tween-20). Inhibition of POLΘATPase activity was determined by preparing 11-point serial dilutions of the test compounds in 100% DMSO, then transferring 30 nL of the compounds into the ATPase reaction using an Echo acoustic liquid handler (Beckman Coulter, Brea, CA). DMSO-treated wells containing either all of the reaction components (1 nM biotinylated Avi-POLθ[2-894], 5 nM PolyT(50) ssDNA, 100 μM ATP) or with assay buffer substituted for the biotinylated Avi-POLθ[2-894](0 nM biotinylated Avi-POLθ[2-894], 5 nM PolyT(50) ssDNA, 100 μM ATP) were used to define the maximum and minimum response in the assay. Following a one-hour incubation at ambient temperature, 5 μL of ADP-Glo Reagent was added to the ATPase reaction, and this mixture was allowed to incubate at ambient temperature for an additional hour. Lastly, 5 μL of Kinase Detection Reagent was added, followed by a third one-hour incubation at ambient temperature. The reagent concentrations listed represent the amounts only in the 5 μL ATPase reaction volume.
As to `COc1cnc(Cl)cc1-c1cc(C)ncc1C(=O)Nc1nc2c(s1)CN(C(=O)c1ccnc(C(F)(F)F)n1)C2` [US20250230171, Compound 443], it took 8 nM to reach half-maximal inhibition (IC50).

With `COc1cnc(Cl)cc1-c1cc(C)ncc1C(=O)Nc1nc2c(s1)CN(C(=O)c1cnc(C(F)F)c(Cl)c1)C2` [US20250230171, Compound 445], the concentration for half-maximal inhibition (IC50) amounted to 8 nM. In other words, the single-digit nanomolar range. As for `COc1cnc(Cl)cc1-c1cc(C)ncc1C(=O)Nc1nc2c(s1)CN(C(=O)c1nc(Cl)ccc1C)C2` [US20250230171, Compound 450], the IC50 turned out to be 8 nM. Take `COc1cnc(Cl)cc1-c1cc(C)ncc1C(=O)Nc1nc2c(s1)CN(C(=O)c1ccc(C(F)F)nn1)C2` [US20250230171, Compound 454]: inhibition was half-maximal at 8 nM (IC50). The figure for `COc1cnc(Cl)cc1-c1cc(C)ncc1C(=O)Nc1nc2c(s1)CN(C(=O)c1cccc3nccn13)C2` [US20250230171, Compound 455] is 8 nM; for `COc1cnc(Cl)cc1-c1cc(C)ncc1C(=O)Nc1nc2c(s1)CN(C(=O)C1CC3(CC(OC(F)F)C3)C1)C2` (configuration not stated) [US20250230171, Compound 456] it is 8 nM. Next, `COc1cnc(Cl)cc1-c1cc(C)ncc1C(=O)Nc1nc2c(s1)CN(C(=O)c1nn(C)cc1N)C2` [US20250230171, Compound 458]: 8 nM; `COc1cnc(Cl)cc1-c1cc(C)ncc1C(=O)Nc1nc2c(s1)CN(C(=O)c1ncccc1Cl)C2` [US20250230171, Compound 459]: 8 nM. Molecule `COc1cnc(Cl)cc1-c1cc(C)ncc1C(=O)Nc1nc2c(s1)CN(C(=O)c1cccn3cncc13)C2` [US20250230171, Compound 462] had an IC50 of 8 nM. This counts as single-digit nanomolar.

As for `COc1cnc(Cl)cc1-c1cc(C)ncc1C(=O)Nc1nc2c(s1)CN(C(=O)c1cnc(C(F)F)cc1C)C2` [US20250230171, Compound 466], the IC50 was 8 nM.

`COc1cc(Cl)ccc1C(=O)N1Cc2nc(NC(=O)c3cnc(C)cc3-c3cc(C#N)ccc3OC)sc2C1` [US20250230171, Compound 467] displayed an IC50 of 8 nM.

Take `COc1ccc2oc(C(=O)N3Cc4nc(NC(=O)c5cnc(C)cc5-c5cc(Cl)ncc5OC)sc4C3)nc2c1` [US20250230171, Compound 472]: half-maximal inhibition (IC50) was put at 8 nM. `COc1cnc(Cl)cc1-c1cc(C)ncc1C(=O)Nc1nc2c(s1)CN(C(=O)C1CC3(CC(F)C3)C1)C2` (configuration not stated) [US20250230171, Compound 473] had a half-inhibitory concentration (IC50) of 8 nM.

`COc1cnc(Cl)cc1-c1cc(C)ncc1C(=O)Nc1nc2c(s1)CN(C(=O)c1c(C)ncn1C)C2` [US20250230171, Compound 476] yielded an IC50 of 8 nM. That is a single-digit nanomolar value.

With `COc1cnc(Cl)cc1-c1cc(C)ncc1C(=O)Nc1nc2c(s1)CN(C(=O)c1cnc(C(F)(F)F)nc1C)C2` [US20250230171, Compound 477], the IC50 turned out to be 8 nM. The figure for `COc1cnc(Cl)cc1-c1cc(C)ncc1C(=O)Nc1nc2c(s1)CN(C(=O)c1nc(C)ncc1Cl)C2` [US20250230171, Compound 479] is 8 nM; for `COc1ncc(Cl)c(C(=O)N2Cc3nc(NC(=O)c4cnc(C)cc4-c4cc(Cl)ncc4OC)sc3C2)n1` [US20250230171, Compound 481] it is 8 nM. With `COc1cnc(Cl)cc1-c1cc(C)ncc1C(=O)Nc1nc2c(s1)CN(C(=O)c1cc(Cl)cnc1OC)C2` [US20250230171, Compound 486], the half-maximal inhibitory concentration (IC50) worked out at 8 nM.

Molecule `COc1cnc(Cl)cc1-c1cc(C)ncc1C(=O)Nc1nc2c(s1)CN(C(=O)c1nc(C)ncc1OC)C2` [US20250230171, Compound 493] showed an IC50 of 8 nM.

On to `COc1cnc(Cl)cc1-c1cc(C)ncc1C(=O)Nc1nc2c(s1)CN(C(=O)c1cccc(C)n1)C2` [US20250230171, Compound 497], for which half-maximal inhibition (IC50) was put at 8 nM. For the molecule `COc1cnc(Cl)cc1-c1cc(C)ncc1C(=O)Nc1nc2c(s1)CN(C(=O)c1nc(C)ccc1Cl)C2` [US20250230171, Compound 498], the concentration for half-maximal inhibition (IC50) worked out at 8 nM. That is a single-digit nanomolar value.

As to `COc1cnc(Cl)cc1-c1cc(C)ncc1C(=O)Nc1nc2c(s1)CN(C(=O)c1ncc(C(C)(F)F)cc1Cl)C2` [US20250230171, Compound 501], the 50% inhibitory concentration (IC50) was found to be 8 nM. This counts as single-digit nanomolar.
